Test results published in PMC6510728, “Efficacy of the novel CDK7 inhibitor QS1189 in mantle cell lymphoma” (Scientific Reports, 2019).
Read-outs that look alike come from different tables or passages of the source.

Experiments:
Jeko-1 cells = assay: MTT assay, cell viability; format: cell-based; conditions: Homo sapiens, 72 h, read-out: IC50 values (nM, mean ± S.D.)
Method: (§1) The human lymphoma cell lines (Mino, Maver-1, Jeko-1, Z-138, OCI-Ly7, OCI-Ly10, SU-DHL-6, SU-DHL-8, U2932, Daudi, Namalwa, Raji, and Ramos) were purchased from the American Type Culture Collection (ATCC, Manassas, VA, USA) and DSMZ (Braunschweig, Germany). Cells were cultured in RPMI1640 medium containing 10% foetal bovine serum, 100 U/mL penicillin, and […] streptomycin (Invitrogen, Carlsbad, CA, USA) at 37 °C in an atmosphere of 5% CO2. OCI-Ly7 and OCI-Ly10 were cultured in IMDM. Tests for mycoplasma contamination were negative. Ibrutinib and venetocalx were purchased from Selleck Chemicals (Houston, TX, USA).
(§2) Cells (2 × 10^4) were seeded into 96-well sterile plastic plates overnight and then treated with the relevant drugs. After 72 h, 15 μL of MTT solution (5 mg/mL) was added to each well and the plates were incubated for 4 h. Crystalline formazan was solubilized with 100 μL of 10% (w/v) SDS solution for 24 h. Absorbance at 595 nm was read spectrophotometrically using a microplate reader. The results represent at least three independent experiments, and the error bars signify the standard deviation from the mean. The IC50 values were determined using GraphPad Prism software (GraphPad, Inc., La Jolla, CA, USA).

Maver-1 cells = assay: MTT assay, cell viability; format: cell-based; conditions: Homo sapiens, Maver1, 72 h, read-out: IC50 values (nM, mean ± S.D.)
Method: as §1, §2

Mino cells = assay: MTT assay, cell viability; format: cell-based; conditions: Homo sapiens, 72 h, read-out: IC50 values (nM, mean ± S.D.)
Method: as §1, §2

OCI-Ly10 cells = assay: MTT assay, cell viability; format: cell-based; conditions: Homo sapiens, 72 h, read-out: IC50 values (nM, mean ± S.D.)
Method: as §1, §2

SU-DHL-6 cells = assay: MTT assay, cell viability; format: cell-based; conditions: Homo sapiens, 72 h, read-out: IC50 values (nM, mean ± S.D.)
Method: as §1, §2

U2932 cells = assay: MTT assay, cell viability; format: cell-based; conditions: Homo sapiens, 72 h, read-out: IC50 values (nM, mean ± S.D.)
Method: as §1, §2

Z-138 cells = assay: MTT assay, cell viability; format: cell-based; conditions: Homo sapiens, 72 h, read-out: IC50 values (nM, mean ± S.D.)
Method: as §1, §2

[1] = test system: venetoclax-resistant cells (Mino/VR-1, Mino/VR-2, Maver-1/VR-1, Maver-1/VR-2); assay: MTT assay in cells with acquired resistance to venetoclax; format: cell-based, human; conditions: all resistant cells vs parental Mino and Maver-1, 72 h
Method: Maver-1/VR cells were established by chronic, repeated exposure to increasing venetoclax doses up to 1 μM for more than 8 months. Maver-1/VR cells were cloned by single-cell culture, and these resistant sublines were designated as Maver-1/VR-1 and Maver-VR-2. In all studies, resistant cells were cultured in drug-fee medium for >1 week to eliminate the effects of venetoclax. The genetic identity of each subclone with the parental cells was verified by short tandem repeat (STR) analysis conducted at Cosmogenetech (Cosmogenetech co. Ltd., Seoul, Korea) according to established protocols.
as §2

[2] = test system: patients with relapsed or refractory MCL; design: method as in PMID 28095146; conditions: phase I first-in-human study; cited from earlier work
[3] = test system: patients with relapsed or refractory MCL; design: method as in PMID 23782157; conditions: cited from earlier work

| SMILES | IC50 (Jeko-1 cells) | IC50 (Maver-1 cells) | IC50 (Mino cells) | IC50 (OCI-Ly10 cells) | IC50 (SU-DHL-6 cells) | IC50 (U2932 cells) | IC50 (Z-138 cells) | fold higher resistance to venetoclax than the parental cells [1] | best overall response rate [2] | complete response rate [2] | median progression-free survival [2] | best overall response rate [3] | complete response rate [3] | median progression-free survival [3] |
| --- | --- | --- | --- | --- | --- | --- | --- | --- | --- | --- | --- | --- | --- | --- |
| CC1(C)CCC(CN2CCN(c3ccc(C(=O)NS(=O)(=O)c4ccc(NCC5CCOCC5)c([N+](=O)[O-])c4)c(Oc4cnc5[nH]ccc5c4)c3)CC2)=C(c2ccc(Cl)cc2)C1 [Venetoclax, venetoclax] | > 1000 nM | 2.5 ± 0.4 nM | 275 ± 62.9 nM | 35.3 nM | 66.9 nM | 121 nM | > 1000 nM | 10–100 fold | 75% | 21% | 14 months | – | – | – |
| C=CC(=O)N1CCC[C@@H](n2nc(-c3ccc(Oc4ccccc4)cc3)c3c(N)ncnc32)C1 [Ibrutinib, ibrutinib] | > 10000 nM | > 10000 nM | > 1000 nM | – | – | – | > 10000 nM | – | – | – | – | 68% | 21% | 13.9 months |
